Test results as given in patent US20240270821A1, “GIP/GLP1/GCG TRI-RECEPTOR AGONISTS AND USES THEREOF” (priority 2023, published 2024).
Like-named read-outs stand apart in the source and are kept apart here. Starred links: 1 amine or outer side, 2 acyl side, 3 side chain; linkers in the order of their positions; H or OH if unused. Non-standard residues stand in square brackets, D forms with d. Groups on a side chain read outwards from the residue. *: point of attachment. C18 diacid = O=C(O)CCCCCCCCCCCCCCCCC(=O)*; αMePhe(2-F) = C[C@](N)(Cc1ccccc1F)C(=O)O; γGlu = O=C(O)[C@H](CCC(=O)[*:2])N[*:1]; αMe4Pal = C[C@](N)(Cc1ccncc1)C(=O)O; αMeY = C[C@](N)(Cc1ccc(O)cc1)C(=O)O; 4Pal = N[C@@H](Cc1ccncc1)C(=O)O; αMeL = CC(C)C[C@](C)(N)C(=O)O; αMeS = C[C@](N)(CO)C(=O)O; Orn = NCCC[C@H](N)C(=O)O; AEEA = NCCOCCOCC(=O)O; Aib = CC(C)(N)C(=O)O

Experiments:
Format in all cases: cell-based
hGIPR [1] = target: T1, hGIPR (Homo sapiens, UniProt P48546); experiment: Functional cAMP activity in the presence of 1% HSA; conditions: read-out: cAMP Rel EC50, hGIPR
T1 sequence (P48546 22-466): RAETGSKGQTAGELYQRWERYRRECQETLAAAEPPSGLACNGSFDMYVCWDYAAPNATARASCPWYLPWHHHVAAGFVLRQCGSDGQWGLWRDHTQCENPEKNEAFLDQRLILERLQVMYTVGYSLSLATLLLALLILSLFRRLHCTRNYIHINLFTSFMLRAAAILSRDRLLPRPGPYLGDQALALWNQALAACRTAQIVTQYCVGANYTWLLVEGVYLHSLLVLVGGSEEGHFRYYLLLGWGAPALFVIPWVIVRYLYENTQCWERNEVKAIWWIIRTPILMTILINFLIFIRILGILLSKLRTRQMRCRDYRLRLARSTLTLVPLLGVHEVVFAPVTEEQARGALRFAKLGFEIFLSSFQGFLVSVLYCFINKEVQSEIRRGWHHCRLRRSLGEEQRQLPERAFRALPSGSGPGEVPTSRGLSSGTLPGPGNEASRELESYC

hGLP-1R [2] = target: T2, hGLP-1R (Homo sapiens, UniProt P43220); experiment: Functional cAMP activity in the presence of 1% HSA; conditions: read-out: cAMP Rel EC50, hGLP-1R
T2 sequence (P43220 24-463): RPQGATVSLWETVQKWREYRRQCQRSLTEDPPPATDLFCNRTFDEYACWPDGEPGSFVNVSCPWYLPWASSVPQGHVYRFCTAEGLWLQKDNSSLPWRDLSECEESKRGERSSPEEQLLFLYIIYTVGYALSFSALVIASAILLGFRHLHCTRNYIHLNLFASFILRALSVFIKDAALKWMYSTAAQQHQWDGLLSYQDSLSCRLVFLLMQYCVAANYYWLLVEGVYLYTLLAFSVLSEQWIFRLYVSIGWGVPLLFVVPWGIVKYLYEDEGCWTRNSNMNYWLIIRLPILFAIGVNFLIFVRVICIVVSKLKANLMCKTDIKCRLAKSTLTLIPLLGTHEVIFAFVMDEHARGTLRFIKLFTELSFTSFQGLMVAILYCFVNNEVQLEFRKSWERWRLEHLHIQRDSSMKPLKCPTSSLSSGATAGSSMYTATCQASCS

human GcgR = human GcgR (Homo sapiens, UniProt P47871); experiment: Functional cAMP activity in the presence of 1% HSA; conditions: read-out: cAMP Rel EC50, hGcgR
human GcgR, sequence (P47871 26-477): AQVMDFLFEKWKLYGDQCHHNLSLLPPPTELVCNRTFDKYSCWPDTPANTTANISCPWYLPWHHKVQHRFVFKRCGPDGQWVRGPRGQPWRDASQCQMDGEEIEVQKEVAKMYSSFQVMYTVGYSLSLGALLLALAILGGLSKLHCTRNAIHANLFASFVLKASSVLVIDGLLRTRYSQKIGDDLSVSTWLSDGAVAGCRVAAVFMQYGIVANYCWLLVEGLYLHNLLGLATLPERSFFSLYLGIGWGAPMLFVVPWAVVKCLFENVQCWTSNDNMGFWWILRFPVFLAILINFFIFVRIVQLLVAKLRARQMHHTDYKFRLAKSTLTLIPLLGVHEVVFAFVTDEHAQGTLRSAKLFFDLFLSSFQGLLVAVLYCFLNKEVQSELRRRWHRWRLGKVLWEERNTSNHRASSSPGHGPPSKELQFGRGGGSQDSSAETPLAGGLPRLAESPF

hGIPR [3] = target: T1, hGIPR; experiment: Functional cAMP activation in the presence of 0.1% casein (no HSA); conditions: read-out: Relative cAMP EC50, hGIPR;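 for Relative cAMP EC50, hGIPR: intracellular cAMP rise after 30 min at 37 °C read by HTRF against a standard curve, scaled between buffer alone (0%) and top control ligand concentration (100%), four-parameter fit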;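 for Relative cAMP EC50, hGLP-1R: intracellular cAMP rise after 30 min at 37 °C read by HTRF, normalized between buffer only (0%) and maximal control ligand (100%), four-parameter variable-slope fit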;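 for Relative cAMP EC50, hGcgR: intracellular cAMP rise after 30 min at 37 °C, read by HTRF against a cAMP standard curve, scaled from buffer only (0%) to maximal control ligand response (100%)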
hGLP-1R [4] = target: T2, hGLP-1R; experiment: as above; conditions: read-out: Relative cAMP EC50, hGLP-1R
hGcgR = hGcgR (Homo sapiens, UniProt P47871); experiment: as above; conditions: read-out: Relative cAMP EC50, hGcgR;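 note: intracellular cAMP rise after 30 min at 37 °C, read by HTRF against a cAMP standard curve, scaled from buffer only (0%) to maximal control ligand response (100%)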
hGcgR, sequence (P47871 26-477): as above

[5] = 0.1% casein, no HSA, geometric mean

Substance | EC50 (hGIPR [1]) | EC50 (hGLP-1R [2]) | EC50 (human GcgR) | EC50 (hGIPR [3]) | EC50 (hGLP-1R [4]) | EC50 (hGcgR) | EC50 (hGIPR [3]; [5]) | EC50 (hGLP-1R [4]; [5]) | EC50 (hGcgR; [5])
H-Y[Aib]QGT[αMePhe(2-F)]TSD[4Pal][αMeS]I[αMeL]LD[Orn]K([AEEA-γGlu-C18 diacid])AA[Aib]EFI[dE][αMeY]LIEGGPSSGAPPPSG[dE]-NH2 [Example 721] | 1.19 nM | 27.1 nM | 183 nM | 0.00774 nM | 0.233 nM | 1.78 nM | – | – | –
H-Y[Aib]QGT[αMePhe(2-F)]TSD[4Pal][αMeS]I[αMeL]LD[Orn]K([AEEA-γGlu-C18 diacid])AA[Aib]EFI[dE][αMeY]LIEGGPSSGEPPPSGGGE-NH2 [Example 746] | 1.44 nM | 38.6 nM | 255 nM | 0.0119 nM | 0.261 nM | 1.62 nM | – | – | –
H-Y[Aib]QGT[αMePhe(2-F)]TSD[4Pal][αMeS]I[αMeL]LD[Orn]K([AEEA-γGlu-C18 diacid])AA[Aib]EFI[dE][αMeY]LLEGGPSSGAPPPSGS-NH2 [Example 672] | 1.53 nM | 49.4 nM | 162 nM | 0.014 nM | 0.389 nM | 1.19 nM | – | – | –
H-Y[Aib]QGT[αMePhe(2-F)]TSD[4Pal][αMeS]I[αMeL]LD[Orn]K([AEEA-γGlu-C18 diacid])AA[Aib]EFI[dE][αMeY]LVEGGPSSGAPPPSGS-NH2 [Example 693] | 1.1 nM | 18 nM | 304 nM | 0.0104 nM | 0.161 nM | 2.39 nM | – | – | –
H-Y[Aib]QGT[αMePhe(2-F)]TSD[4Pal][αMeS]I[αMeL]LD[Orn]K([AEEA-γGlu-C18 diacid])AQ[Aib]NFIEYLIEGGPSSGEPPPEEG-NH2 [Example 482] | 1.58 nM | 14.9 nM | 325 nM | 0.0139 nM | 0.177 nM | 1.41 nM | – | – | –
H-Y[Aib]QGT[αMePhe(2-F)]TSD[4Pal][αMeS]I[αMeL]LD[Orn]K([AEEA-γGlu-C18 diacid])AQ[Aib]NFIEYLIEGGPSSGEPPPEGE-NH2 [Example 483] | 1.17 nM | 18.2 nM | 231 nM | 0.0133 nM | 0.188 nM | 1.77 nM | – | – | –
H-Y[Aib]QGT[αMePhe(2-F)]TSD[4Pal][αMeS]I[αMeL]LD[Orn]K([AEEA-γGlu-C18 diacid])AQ[Aib][Orn]FIEYLIEAGPSSGEPPPEEG-NH2 [Example 484] | 1.59 nM | 16 nM | 204 nM | 0.0152 nM | 0.201 nM | 3.99 nM | – | – | –
H-Y[Aib]QGT[αMePhe(2-F)]TSD[4Pal][αMeS]I[αMeL]LD[Orn]K([AEEA-γGlu-C18 diacid])AQ[Aib][Orn]FIEYLIEGGPSSGEPPPEEG-NH2 [Example 476] | 1.29 nM | 14.6 nM | 90.2 nM | 0.0131 nM | 0.164 nM | 1.34 nM | – | – | –
H-Y[Aib]QGT[αMePhe(2-F)]TSD[4Pal][αMeS]I[αMeL]LD[Orn]K([AEEA-γGlu-C18 diacid])AQ[Aib][Orn]FI[dE]YLIEGGPSSGEPPPSGTE-NH2 [Example 501] | 2.32 nM | 38 nM | 455 nM | 0.0373 nM | 0.401 nM | 4.54 nM | – | – | –
H-Y[Aib]QGT[αMePhe(2-F)]TSD[4Pal][αMeS]I[αMeL]LD[Orn]K([AEEA-γGlu-C18 diacid])AQ[Aib][Orn]FI[dE]YLIEGGPSSGEPPPSGTEE-NH2 [Example 533] | 3.23 nM | 30 nM | 453 nM | 0.0388 nM | 0.334 nM | 5.02 nM | – | – | –
H-Y[Aib]QGT[αMePhe(2-F)]TSD[4Pal][αMeS]I[αMeL]LD[Orn]K([AEEA-γGlu-C18 diacid])AQ[Aib][Orn]FI[dE][αMeY]LIEGGPSSGEPEPSEG-NH2 [Example 481] | 1.19 nM | 14.2 nM | 100 nM | 0.0164 nM | 0.204 nM | 1.22 nM | – | – | –
H-Y[Aib]QGT[αMePhe(2-F)]TSD[4Pal][αMeS]I[αMeL]LD[Orn]K([AEEA-γGlu-C18 diacid])AQ[Aib][Orn]FI[dE][αMeY]LIEGGPSSGEPPPEGE-NH2 [Example 698] | 0.824 nM | 20.6 nM | 124 nM | 0.0112 nM | 0.252 nM | 1.53 nM | – | – | –
H-Y[Aib]QGT[αMePhe(2-F)]TSD[4Pal][αMeS]I[αMeL]LD[Orn]K([AEEA-γGlu-C18 diacid])AQ[Aib][Orn]FI[dE][αMeY]LIEGGPSSGEPPPEGTGE-NH2 [Example 697] | 0.607 nM | 18.2 nM | 130 nM | 0.0109 nM | 0.235 nM | 1.71 nM | – | – | –
H-Y[Aib]QGT[αMePhe(2-F)]TSD[4Pal][αMeS]I[αMeL]LD[Orn]K([AEEA-γGlu-C18 diacid])AQ[αMe4Pal]EFI[dE][αMeY]LIEGGPPSGEPPPEGE-NH2 [Example 1191] | 0.931 nM | 82.3 nM | 243 nM | – | – | – | 0.00992 nM | 0.945 nM | 3.06 nM
H-Y[Aib]QGT[αMePhe(2-F)]TSD[4Pal][αMeS]I[αMeL]LD[Orn]K([AEEA-γGlu-C18 diacid])AQ[αMe4Pal]EFI[dE][αMeY]LIEGGPPS[Aib]EPPPSGGGE-NH2 [Example 1201] | 1.02 nM | 93.9 nM | 234 nM | – | – | – | 0.00959 nM | 0.888 nM | 1.76 nM
H-Y[Aib]QGT[αMePhe(2-F)]TSD[4Pal][αMeS]I[αMeL]LD[Orn]K([AEEA-γGlu-C18 diacid])AQ[αMe4Pal]EFI[dE][αMeY]LIEGGPPS[Aib]EPPPSGSE-NH2 [Example 1200] | 0.896 nM | 91.4 nM | 278 nM | – | – | – | 0.00883 nM | 0.727 nM | 1.5 nM
H-Y[Aib]QGT[αMePhe(2-F)]TSD[4Pal][αMeS]I[αMeL]LD[Orn]K([AEEA-γGlu-C18 diacid])AQ[αMe4Pal]EFI[dE][αMeY]LIEGGPPS[Aib][Orn]PPPEGE-NH2 [Example 1194] | 0.759 nM | 57.4 nM | 215 nM | – | – | – | 0.00725 nM | 0.51 nM | 2.02 nM
H-Y[Aib]QGT[αMePhe(2-F)]TSD[4Pal][αMeS]I[αMeL]LD[Orn]K([AEEA-γGlu-C18 diacid])AQ[αMe4Pal]EFI[dE][αMeY]LIEGGPPS[Aib][Orn]PPPSGGGE-NH2 [Example 1199] | 0.733 nM | 63.9 nM | 352 nM | – | – | – | 0.0076 nM | 0.5 nM | 2.05 nM
H-Y[Aib]QGT[αMePhe(2-F)]TSD[4Pal][αMeS]I[αMeL]LD[Orn]K([AEEA-γGlu-C18 diacid])AQ[αMe4Pal]EFI[dE][αMeY]LIEGGPPS[Aib][Orn]PPP[Orn]GE-NH2 [Example 1195] | 0.637 nM | 44.2 nM | 242 nM | – | – | – | 0.00708 nM | 0.367 nM | 1.74 nM
H-Y[Aib]QGT[αMePhe(2-F)]TSD[4Pal][αMeS]I[αMeL]LD[Orn]K([AEEA-γGlu-C18 diacid])AQ[αMe4Pal]EFI[dE][αMeY]LIEGGPPS[Aib][Orn]PPP[Orn]GGGE-NH2 [Example 1197] | 0.639 nM | 46.1 nM | 288 nM | – | – | – | 0.00666 nM | 0.407 nM | 1.88 nM
